Earlier results on one substance are cited in article PMC11431785, “From In Vitro Promise to In Vivo Reality: An Instructive Account of Infection Model Evaluation of Antimicrobial Peptides” (International Journal of Molecular Sciences, 2024).

The conditions of data set [1]: human serum mixed 1:1 with peptide 1 mM in water, 37 °C with stirring, aliquots 0-1440 min, TCA precipitation, HPLC; cited from earlier work. The text has this:
Table 1 Sequence and properties of peptides in this study. | column: t1/2 (min) || In this work, we focus on crotalicidin (Ctn), a 34-residue AMP from the venom of Crotalus durissus terrificus, a South American pit viper. […] It is, however, slightly toxic to eukaryotic cells, including cancer cells, which makes it a good anticancer peptide (ACP) candidate. Virtual Ctn dissection with elastase yields two fragments, Ctn[1-14] and Ctn[15-34]. While the former (KRFKKFFKKVKKSV) retains the α-helical conformation of Ctn, it loses both the anticance ...

A further data set deals with A. baumannii. Particulars: MHB, inoculum 5 × 10^5 CFU/mL, 20–22 h at 37 °C, 0.04% BSA and 0.002% acetic acid, duplicate; cited from earlier work. The text has this: Table 1 Sequence and properties of peptides in this study. | column: MIC (μM) A. baumannii
Data set [2] deals with 1BR3G human fibroblast cells. Particulars: cytotoxicity, RPMI 2% FBS, Cell Titer Blue, triplicate; cited from earlier work. From the text:
Table 1 Sequence and properties of peptides in this study. | column: IC50 (μM)
In general terms: Alamar Blue is a resazurin reagent that responds to reducing activity.

Take crotalicidin [Ctn]: in data set [1], the “t1/2” value is 1.18 h. Moreover, in the data set with A. baumannii, the “MIC (μM) A. baumannii” value was 0.78 µM. Also, the IC50 in data set [2] was 14.3 µM.

One may read the IC50 as the concentration that inhibits the measured activity by half.
